These results are taken from publication PMC9598925, “Synthetic Amphipathic β-Sheet Temporin-Derived Peptide with Dual Antibacterial and Anti-Inflammatory Activities” (Antibiotics, 2022).

Read-outs that look alike come from different tables or passages of the source. Non-standard residues stand in square brackets, D forms with d. Residues, ends and D or L forms follow the SMILES beside them. Nle = CCCC[C@H](N)C(=O)O

One data set can be described thus: ANTS/DPX leakage assay. The conditions noted are these: 100% = 0.1% Triton. As for the experimental part: The ability of the peptide [Nle^1, DLeu^9, DLys^10]TL to induce LUVs leakage was evaluated using ANTS/DPX assay. After the preparation of lipid films (0.1 mM) as described above, fluorophores ANTS (12.5 mM) and DPX (45 mM) were dissolved in water and added to lipid films. The mixture was frozen and lyophilized overnight. Then, the lipid films with ANTS and DPX were hydrated with PBS 1× buffer, vortexed for 1 h and then treated to obtain LUVs. The nonencapsulated ANTS and DPX were removed by gel filtration using a Sephadex G-50 column (1.5 cm × 10 cm) at room temperature. The leakage experiment was performed titrating LUVs with different peptide concentrations of 5, 10, 15, 20, 30, 50 μM, and each sample was excited at 385 nm (slit width, 5 nm) and the fluorescence emission was recorded at 512 nm (slit width, 5 nm). The liposomes leakage promoted by peptide was correlated with an increase of ANTS fluorescence at 512 nm. In this experiment, the control was represented by the complete release of ANTS after the treatment of LUVs with 0.1% Triton. The liposomes leakage was calculated as % Leakage = (Fi − F0)/(Ft − F0), where F0 is the fluorescence of intact LUVs before the addition of peptide, and Fi and Ft is the intensities of the fluorescence achieved after peptide and Triton-X treatment, respectively.

Data set [1] has as its system J774A.1 murine macrophage cells. Conditions: MTT, 3 independent experiments.
Description: The spectrophotometric absorbance was then measured using a microtiter enzyme-linked immunosorbent assay reader (Multiskan™ GO Microplate Spectrophotometer; Thermo Scientific™, Milan, Italy) at 540 nm. The percentage of cell viability was assessed by the following formula: (OD of treated cells/OD of control) × 100.
The nature of data set [2]: Peptide aggregation in aqueous solution, Nile Red. Format: physicochemical. Conditions: Nile Red 500 nM, 1–200 μM peptide, 1 h equilibration at room temperature, fluorescence, triplicate, Boltzmann fit. As for the experimental part: Nile Red (NR) was used as fluorescent probe to monitor the aggregation in solution [51]. NR is not very soluble in water and has a large preference to move into hydrophobic environment as aggregates, producing a blue shift and hyperchromic effect. The peptide stock (400 μM) was prepared in 1,1,1,3,3,3-hexafluoro-2-propanol (HFIP) as solvent and different aliquots were taken to prepare each peptide solution at different concentrations (1, 5, 10, 15, 20, 30, 50, 100, and 200 μM). Then, HFIP was removed under nitrogen stream, 1 mL of water was added, and the solution was sonicated for 15 min and freeze-dried. Finally, the peptide powders were dissolved with a solution of 500 nM of NR in water and equilibrated for 1 h at room temperature. Emission spectra for each solution were measured between 570 and 700 nm by a Cary Eclipse Varian spectrometer (San Diego, CA, USA), setting a slit width of 5 nm and an excitation wavelength of 550 nm and a 10 nm slit width. The measurements were performed in triplicate. The data were analyzed by plotting the maximum emission fluorescence corresponding wavelength (y) as a function of peptide concentration (x) and fitting with the sigmoidal Boltzmann equation as described previously.

A further data set has as its system HaCaT cells. The experiment in a line: Cytotoxicity on human keratinocytes, MTT assay. Format: cell-based. Conditions: 3.12–12.5 μM, 2 h and 24 h. As for the experimental part:
The human immortalized keratinocytes HaCaT cells were purchased from AddexBio (San Diego, CA, USA) and cultured in Dulbecco’s modified Eagle’s medium supplemented with 4 mM glutamine (DMEMg), 10% heat-inactivated fetal bovine serum (FBS), and 0.1 mg/mL of penicillin and streptomycin, at 37 °C and 5% CO2, in 25 cm^2 or 75 cm^2 flasks. The in vitro MTT [3-(4,5-dimethylthiazol-2-yl)-2,5-diphenyltetrazolium bromide] assay, based on the reduction of the yellow tetrazolium salt MTT to the purple formazan by viable cells with active metabolism, was used to evaluate the peptide cytotoxicity on HaCaT cells, as previously described in [27]. Specifically, 4 × 10^4 HaCaT cells, suspended in DMEMg supplemented with 2% FBS were plated in a 96-well microtiter plate. After overnight incubation, at 37 °C in a 5% CO2 atmosphere, HaCaT cells were treated for 2 h or 24 h with fresh serum free medium containing the peptide [Nle^1, DLeu^9, DLys^10]TL in a concentration range from 3.12 to 100 μM. […] Formazan crystals were dissolved using acidified isopropanol, and the absorbance of each well was measured at 570 nm using a microplate reader (Infinite M200; Tecan, Salzburg, Austria). The number of viable cells was proportional to the intensity of purple color and was expressed as percentage compared to that of untreated control cells (100%). […]
(Tetrazolium dyes change colour on reduction, which living cells bring about.)

For `CCCC[C@H](N)C(=O)N[C@@H](Cc1ccccc1)C(=O)N[C@H](C(=O)N1CCC[C@H]1C(=O)N[C@@H](Cc1c[nH]c2ccccc12)C(=O)N[C@@H](Cc1ccccc1)C(=O)N[C@@H](CO)C(=O)N[C@@H](CCCCN)C(=O)N[C@@H](Cc1ccccc1)C(=O)N[C@H](CC(C)C)C(=O)N[C@H](CCCCN)C(=O)N[C@@H](CCCNC(=N)N)C(=O)N[C@H](C(=O)N[C@@H](CC(C)C)C(N)=O)[C@@H](C)CC)C(C)C` [[Nle^1, DLeu^9, DLys^10]TL] (H-[Nle]FVPWFSKF[dL][dK]RIL-NH2), the LUVs leakage is ~ 60% in the data set “ANTS/DPX leakage assay” (10 μM peptide, LUVs DOPG/CL) and ~ 20% in the data set “ANTS/DPX leakage assay” (highest concentration of 50 μM, LUVs DOPG/DOPE/CL). Further, the “cytotoxic effect on murine macrophage cell line” value in data set [1] (J774A.1, 1–3 μM) was “safe profile”; in data set [1] (J774A.1, 10 and 30 μM), “significant reduction of cell viability”. Further, the “critical aggregation concentration (CAC)” value in data set [2] came to 38.9 µM. For the same molecule, the “effect on human keratinocytes viability” value with HaCaT cells is “only a slight reduction”.
